Drawing on patent US20250129070A1, “BIFUNCTIONAL ANDROGEN RECEPTOR COMPOUNDS” (priority 2023, published 2025), this text covers IC50 and EC50 for 5 molecules.

What all share (format): cell-based
In test [1] the test system is HEK-293 cells. Briefly: HEK-293 growth inhibition assay. The following applies: 3 days, CTG. As to the method:
Cluster plates are returned to the incubator (37*C/5% CO2) for 24 hours prior to treatment. […] Cluster plates are returned to the incubator for 3 days.
After the 3-day treatment period, 100 uL media was removed from each well by aspiration and 100 uL room temperature CTG reagent (Promega Cat #G7573) is added back to each well. The cluster plates are placed on a shaker and incubated at room temperature for 20 minutes. Following this shaking/incubation, cluster plates are read on a luminometer (BMG ClarioStar). IC50 values are obtained by graphing the RLU data vs. compound concentration with nonlinear regression 4-parameter logistic curves (GraphPad Prism).

For test [2], the system named is VCaP cells. Briefly: VCaP growth inhibition assay. Particulars: 30 pM R1881, 9 days, CTG. The essentials: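 VCaP cells in phenol red-free DMEM/5% CSS, pre-incubated 72 h, then stimulated with R1881 (final 30 pM) and treated with 1:5 serial dilutions (final 100 nM to 10 fM) for 9 days at 37 °C. Viability by CellTiter-Glo luminescence; IC50 from 4-parameter logistic fit of RLU vs concentration.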

In test [3] the test system is AR / CBP ternary complex. Briefly: Ternary complex formation assay (sandwich ELISA, AR capture / CBP detection) in VCaP cell lysates. The following applies: 1.5 hours treatment, sandwich ELISA (AR capture, CBP or p300 detection). In outline:
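VCaP cells (50K/well, 5% charcoal-stripped FBS, ≥3 days) treated with bifunctional compound for 1.5 h, then lysed 30 min at 4 °C. AR captured on anti-AR (AR 441) plates; bound CBP or p300 detected by rabbit mAb plus HRP secondary. QuantaRed chemifluorescence read at ex 570/em 585, immediately and at 5 and 15 min.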
On the technique in general: In an ELISA, binding on a coated surface is turned into a signal by an enzyme label.

pEC50, pIC50: −log10 of the molar value. Some results are limits rather than exact numbers.

By pIC50 is commonly meant the IC50 on a negative log10 scale, so that one unit is a factor of ten. A higher pIC50 goes with a small IC50. A word on the pEC50: it is −log10 of the EC50, conventionally taken in molar units. Low values mean a high EC50, high ones a low EC50. Regarding `CNC(=O)N1CCc2c(c(N3CCCc4cc(-c5cnn(C)c5)c(C(F)F)cc43)nn2C2CCN(C(=O)CC3CCN(c4ncc(C(=O)NC5C(C)(C)C(Oc6ccc(C#N)c(Cl)c6)C5(C)C)cn4)CC3)CC2)C1` (stereo not drawn) [Compound 101, 1-[1-[2-[1-[5-[[3-(3-chloro-4-cyano-phenoxy)-2,2,4,4-tetramethyl-cyclobutyl]carbamoyl]pyrimidin-2-yl]-4-piperidyl]acetyl]-4-piperidyl]-3-[7-(difluoromethyl)-6-(1-methylpyrazol-4-yl)-3,4-dihydro-2H-quinolin-1-yl]-N-methyl-6,7-dihydro-4H-pyrazolo[4,3-c]pyridine-5-carboxamide], the pIC50 in test [1] was below 5.00; in test [2] it was at least 10.00. This molecule showed a pEC50 in test [3] above 9.00.

`CC(=O)N1CCc2c(c(Nc3ccc(-c4cnn(C)c4)cc3F)nn2C2CCN(C(=O)CN3CCN(c4ncc(C(=O)NC5C(C)(C)C(Oc6ccc(C#N)c(Cl)c6)C5(C)C)cn4)CC3)CC2)C1` (stereo not drawn) [Compound 66, 2-[4-[2-[4-[5-acetyl-3-[2-fluoro-4-(1-methylpyrazol-4-yl)anilino]-6,7-dihydro-4H-pyrazolo[4,3-c]pyridin-1-yl]-1-piperidyl]-2-oxo-ethyl]piperazin-1-yl]-N-[3-(3-chloro-4-cyano-phenoxy)-2,2,4,4-tetramethyl-cyclobutyl]pyrimidine-5-carboxamide]: the pIC50 in test [1] was below 5.00; in test [2], 9.00 to 10.00. The pEC50 in test [3] is above 9.00.

Take `CNC(=O)N1CCc2c(c(N3CCCc4cc(-c5cnn(C)c5)c(C(F)F)cc43)nn2C2CCN(C(=O)CCN3CCN(c4ncc(C(=O)NC5C(C)(C)C(Oc6ccc(C#N)c(Cl)c6)C5(C)C)cn4)CC3)CC2)C1` (stereo not drawn) [Compound 108, 1-[1-[3-[4-[5-[[3-(3-chloro-4-cyano-phenoxy)-2,2,4,4-tetramethyl-cyclobutyl]carbamoyl]pyrimidin-2-yl]piperazin-1-yl]propanoyl]-4-piperidyl]-3-[7-(difluoromethyl)-6-(1-methylpyrazol-4-yl)-3,4-dihydro-2H-quinolin-1-yl]-N-methyl-6,7-dihydro-4H-pyrazolo[4,3-c]pyridine-5-carboxamide]: the pIC50 in test [1] is below 5.00; in test [2] it was at least 10.00. In test [3], this molecule showed a pEC50 above 9.00.

`CNC(=O)N1CCc2c(c(N3CCCc4cc(-c5cnn(C)c5)c(C(F)F)cc43)nn2C2CCN(C(=O)COCCC3CCN(c4ncc(C(=O)NC5C(C)(C)C(Oc6ccc(C#N)c(Cl)c6)C5(C)C)cn4)CC3)CC2)C1` (stereo not drawn) [Compound 99, 1-[1-[2-[2-[1-[5-[[3-(3-chloro-4-cyano-phenoxy)-2,2,4,4-tetramethyl-cyclobutyl]carbamoyl]pyrimidin-2-yl]-4-piperidyl]ethoxy]acetyl]-4-piperidyl]-3-[7-(difluoromethyl)-6-(1-methylpyrazol-4-yl)-3,4-dihydro-2H-quinolin-1-yl]-N-methyl-6,7-dihydro-4H-pyrazolo[4,3-c]pyridine-5-carboxamide]: the pIC50 in test [1] is below 5.00; in test [2] it was at least 10.00. This molecule showed a pEC50 in test [3] above 9.00.

Regarding `CC(=O)N1CCc2c(c(-c3cccc4cc(-c5ccc(C(=O)NCCCc6ncc(C(=O)NC7C(C)(C)C(Oc8ccc(C#N)c(Cl)c8)C7(C)C)cn6)nc5)ncc34)nn2C2CCOCC2)C1` (stereo not drawn) [Compound 77, 2-[3-[[5-[8-(5-acetyl-1-tetrahydropyran-4-yl-6,7-dihydro-4H-pyrazolo[4,3-c]pyridin-3-yl)-3-isoquinolyl]pyridine-2-carbonyl]amino]propyl]-N-[3-(3-chloro-4-cyano-phenoxy)-2,2,4,4-tetramethyl-cyclobutyl]pyrimidine-5-carboxamide], the values for the pIC50 in test [1] and in test [2] were below 5.00 and 9.00 to 10.00, respectively. In test [3], this molecule had a pEC50 above 9.00.
